Each structure is given as a SMILES string.

One test addresses DGKζ (Homo sapiens (Human), UniProt Q13574). Briefly: Biochemical DGK IC50 assay, DGKζ ADP-Glo assay. As to conditions: 0.5 nM enzyme, 140 μM ATP, 80 μM DAG; read-out: DGKζ ADP-Glo assay IC50. In outline: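 ADP formation measured by ADP-Glo luminescence, with test compounds at final 1.55–10000 nM or 23.3–150000 nM. Enzyme: purified full-length human DGKζ from Sf9 insect cells; substrate: DAG/PS micelles in 25 mM HEPES pH 7.0, 0.5 mM EDTA, octyl glucoside.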
(In general: ADP-Glo turns the ADP formed in a reaction into a luminescent signal.)

The target of the next test is DGKα (Homo sapiens (Human), UniProt P23743). Briefly: Biochemical DGK IC50 assay, DGKα ADP-Glo assay. Conditions: 7.5 nM enzyme, 140 μM ATP, 80 μM DAG. In outline: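 Compounds at final 1.55˜10000 nM or 23.3˜150000 nM were tested against full-length DGKα. Substrate was lipid micelles of DAG and PS resuspended in 25 mM HEPES pH 7.0 with 0.5 mM EDTA and 160 mM octyl β-D-glucopyranoside. ADP formed was detected by ADP-Glo.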
Chain of DGKα (P23743 whole entry): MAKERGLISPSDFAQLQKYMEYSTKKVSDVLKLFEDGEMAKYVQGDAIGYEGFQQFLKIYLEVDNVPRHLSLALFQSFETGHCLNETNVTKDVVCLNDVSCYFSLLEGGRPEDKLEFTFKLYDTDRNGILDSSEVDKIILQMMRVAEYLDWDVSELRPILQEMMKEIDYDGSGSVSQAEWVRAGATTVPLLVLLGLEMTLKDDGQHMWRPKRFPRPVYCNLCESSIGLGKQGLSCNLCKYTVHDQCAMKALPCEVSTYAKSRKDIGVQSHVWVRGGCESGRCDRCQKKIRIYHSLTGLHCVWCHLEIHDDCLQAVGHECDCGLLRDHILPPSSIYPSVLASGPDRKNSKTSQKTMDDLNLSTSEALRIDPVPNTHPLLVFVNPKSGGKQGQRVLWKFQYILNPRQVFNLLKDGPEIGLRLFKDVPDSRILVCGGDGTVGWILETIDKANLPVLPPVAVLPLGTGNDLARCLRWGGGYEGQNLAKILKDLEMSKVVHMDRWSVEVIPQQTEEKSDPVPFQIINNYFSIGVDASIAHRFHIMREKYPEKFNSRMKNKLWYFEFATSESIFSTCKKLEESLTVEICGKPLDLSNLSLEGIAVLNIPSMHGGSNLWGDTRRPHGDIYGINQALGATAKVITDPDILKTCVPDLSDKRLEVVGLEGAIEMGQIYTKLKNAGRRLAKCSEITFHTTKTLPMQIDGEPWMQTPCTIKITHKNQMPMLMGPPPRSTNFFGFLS

Chain of DGKζ (Q13574 other isoform, or with tags, fused parts or gaps): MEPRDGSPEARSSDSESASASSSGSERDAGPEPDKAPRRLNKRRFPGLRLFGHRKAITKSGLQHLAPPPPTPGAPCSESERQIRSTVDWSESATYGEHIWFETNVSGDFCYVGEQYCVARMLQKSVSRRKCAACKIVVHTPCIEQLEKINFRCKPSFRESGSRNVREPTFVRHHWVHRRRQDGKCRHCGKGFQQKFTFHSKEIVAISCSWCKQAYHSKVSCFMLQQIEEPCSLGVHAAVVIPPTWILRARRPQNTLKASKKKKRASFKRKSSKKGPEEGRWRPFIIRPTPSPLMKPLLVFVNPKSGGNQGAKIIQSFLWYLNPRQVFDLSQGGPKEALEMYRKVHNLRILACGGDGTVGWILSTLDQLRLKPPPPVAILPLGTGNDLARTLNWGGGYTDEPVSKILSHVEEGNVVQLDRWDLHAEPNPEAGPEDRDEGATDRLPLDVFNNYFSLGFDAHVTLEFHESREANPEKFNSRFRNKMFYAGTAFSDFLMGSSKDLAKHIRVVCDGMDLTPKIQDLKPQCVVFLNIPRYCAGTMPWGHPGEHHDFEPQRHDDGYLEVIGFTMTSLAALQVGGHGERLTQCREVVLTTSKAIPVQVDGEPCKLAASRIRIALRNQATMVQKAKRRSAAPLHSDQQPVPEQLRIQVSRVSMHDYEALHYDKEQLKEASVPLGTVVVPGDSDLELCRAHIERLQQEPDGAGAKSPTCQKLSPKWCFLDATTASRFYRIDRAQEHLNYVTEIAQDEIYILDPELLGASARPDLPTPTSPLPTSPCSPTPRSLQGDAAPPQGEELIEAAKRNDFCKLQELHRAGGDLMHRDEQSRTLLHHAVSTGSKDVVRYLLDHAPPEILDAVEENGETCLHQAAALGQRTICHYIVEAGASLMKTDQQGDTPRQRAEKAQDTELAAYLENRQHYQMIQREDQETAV

With `CC[C@H]1CN(C(C)c2nc3ccccc3n2CC)[C@H](CC)CN1c1cc(=O)n(C)c2cn(CC#N)nc12` (stereo partly drawn) [Compound A144, 2-(7-((2S,5R)-2,5-diethyl-4-(1-(1-ethyl-1H-benzo[d]imidazol-2-yl)ethyl)piperazin-1-yl)-4-methyl-5-oxo-4,5-dihydro-2H-pyrazolo[4,3-b]pyridin-2-yl)acetonitrile], the IC50 on DGKζ was 0.042 µM; against DGKα, 105 µM.
The like results for `CC[C@H]1CN(C(C)c2cccc(C(N)=O)c2)[C@H](CC)CN1c1cc(=O)n(C)c2cn(CC#N)nc12` (some centres unmarked) [Compound A108] were, in that order, over 10 µM and 3.83 µM.
The like results for `CC[C@H]1CN(C(C)c2nn(CC)cc2C#N)[C@H](CC)CN1c1cc(=O)n(C)c2cn(CC#N)nc12` (stereo partly drawn) [Compound A240, 3-(1-((2R,5S)-4-(2-(cyanomethyl)-4-methyl-5-oxo-4,5-dihydro-2H-pyrazolo[4,3-b]pyridin-7-yl)-2,5-diethylpiperazin-1-yl)ethyl)-1-ethyl-1H-pyrazole-4-carbonitrile] were, in that order, 2.01 µM and 0.948 µM.
The corresponding values for `COCc1cc(F)ccc1C(C)N1C[C@H](C)N(c2cc(=O)n(C)c3cn(CC#N)nc23)C[C@H]1C` (stereo partly drawn) [Compound A29, 2-(7-((2S,5R)-4-(1-(4-fluoro-2-(methoxymethyl)phenyl)ethyl)-2,5-dimethylpiperazin-1-yl)-4-methyl-5-oxo-4,5-dihydro-2H-pyrazolo[4,3-b]pyridin-2-yl)acetonitrile] are 0.11 µM and 23 µM.
`C[C@@H]1CN(c2cc(=O)n(C)c3cn(CC#N)nc23)[C@@H](C)CN1[C@@H](C)c1ccc2nccnc2c1` [Compound A2a, 2-(7-((2S,5R)-2,5-dimethyl-4-((S)-1-(quinoxalin-6-yl)ethyl)piperazin-1-yl)-4-methyl-5-oxo-4,5-dihydro-2H-pyrazolo[4,3-b]pyridin-2-yl)acetonitrile]: the IC50 on DGKζ came out at 0.052 µM; on DGKα it was 4.8 µM.
The corresponding values for `CC[C@H]1CN(C(C)c2ccncc2C(F)(F)F)[C@H](CC)CN1c1cc(=O)n(C)c2cn(CC#N)nc12` (some centres unmarked) [Compound A118] are 0.185 µM and over 150 µM.
On to `CC[C@H]1CN(C(C)c2ccc(C(F)(F)F)cc2F)[C@H](CC)CN1c1cc(=O)n(C)c2c[nH]nc12` (single isomer, unassigned) [Compound A231b], for which the IC50 is over 10 µM on DGKζ and 0.303 µM against DGKα.
With `CC(c1ccc2nccnc2c1)N1C[C@H](C)N(c2cc(=O)n(C)c3cn(C(=O)C4CC4)nc23)C[C@H]1C` (some centres unmarked) [Compound A15], the IC50 at DGKζ came out at 34 µM; on DGKα, 5.9 µM.
The corresponding values for `CC[C@H]1CN(C(C)c2ccc3c(n2)OCCN3C)[C@H](CC)CN1c1cc(=O)n(C)c2cn(CC#N)nc12` (stereo partly drawn) [Compound A166, 2-(7-((2S,5R)-2,5-diethyl-4-(1-(1-methyl-2,3-dihydro-1H-pyrido[2,3-b][1,4]oxazin-6-yl)ethyl)piperazin-1-yl)-4-methyl-5-oxo-4,5-dihydro-2H-pyrazolo[4,3-b]pyridin-2-yl)acetonitrile] are 2.38 µM and over 10 µM.
The corresponding values for `[2H]C([2H])([2H])c1cnc2ccc(C(C)N3C[C@H](C)N(c4cc(=O)n(C)c5cn(CC#N)nc45)C[C@H]3C)cc2n1` (stereo partly drawn) [Compound A313, 2-(7-((2S,5R)-2,5-dimethyl-4-(1-(3-(methyl-d3)quinoxalin-6-yl)ethyl)piperazin-1-yl)-4-methyl-5-oxo-4,5-dihydro-2H-pyrazolo[4,3-b]pyridin-2-yl)acetonitrile] are 0.041 µM and 48 µM.
The corresponding values for `Cc1cnc2ccc([C@@H](C)N3C[C@H](C)N(c4cc(=O)n(C)c5cn(CC#N)nc45)C[C@H]3C)cc2n1` [Compound A269c, 2-(7-((2S,5R)-2,5-dimethyl-4-((R)-1-(3-methylquinoxalin-6-yl)ethyl)piperazin-1-yl)-4-methyl-5-oxo-4,5-dihydro-2H-pyrazolo[4,3-b]pyridin-2-yl)acetonitrile] are over 10 µM and over 10 µM.
Take `CCO[C@@H]1CN(c2cc(=O)n(C)c3cn(CC#N)nc23)CC[C@H]1Oc1cccc(C(F)(F)F)c1` [Compound A295, 2-(7-((3R,4R)-3-ethoxy-4-(3-(trifluoromethyl)phenoxy)piperidin-1-yl)-4-methyl-5-oxo-4,5-dihydro-2H-pyrazolo[4,3-b]pyridin-2-yl)acetonitrile]: the IC50 worked out at 0.563 µM on DGKζ and 5.69 µM on DGKα.
The corresponding values for `C[C@@H]1CN(c2cc(=O)n(C)c3c(C(F)(F)F)nn(CC#N)c23)[C@@H](C)CN1[C@@H](C)c1ccc2nccnc2c1` (single isomer, unassigned) [Compound A244, 2-(7-((2S,5R)-2,5-dimethyl-4-((S)-1-(quinoxalin-6-yl)ethyl)piperazin-1-yl)-4-methyl-5-oxo-3-(trifluoromethyl)-4,5-dihydro-1H-pyrazolo[4,3-b]pyridin-1-yl)acetonitrile or 2-(7-((2S,5R)-2,5-dimethyl-4-((R)-1-(quinoxalin-6-yl)ethyl)piperazin-1-yl)-4-methyl-5-oxo-3-(trifluoromethyl)-4,5-dihydro-1H-pyrazolo[4,3-b]pyridin-1-yl)acetonitrile] are over 10 µM and over 10 µM.
The corresponding values for `Cc1ccc(C(c2ccc(C)cc2)N2C[C@H](C)N(c3cc(=O)n(C)c4cn(CC#N)nc34)C[C@H]2C)cc1` [Compound A333] are 0.21 µM and 10.6 µM.
In the case of `C[C@@H]1CN(c2cc(=O)n(C)c3cn(CC#N)nc23)[C@@H](C)CN1Cc1ccc2nccnc2c1` [Compound A44], the IC50 on DGKζ was found to be 0.61 µM; against DGKα it was 8.1 µM.
The corresponding values for `CC[C@H]1CN(C(C)c2cccc(NC(C)=O)c2)[C@H](CC)CN1c1cc(=O)n(C)c2cn(CC#N)nc12` (some centres unmarked) [Compound A109] are 7.85 µM and 6.17 µM.
The corresponding values for `CC(c1ccc2nccnc2c1)N1C[C@H](C)N(c2cc(=O)n(C)c3cn(C(C)C#N)nc23)C[C@H]1C` (some centres unmarked) [Compound A8] are 0.57 µM and 31 µM.
On to `CC[C@H]1CN(C(C)c2ccc(F)cc2C(F)(F)F)[C@H](CC)CN1c1cc(=O)n(C)c2c[nH]nc12` (single isomer, unassigned) [Compound A275a], for which the IC50 at DGKζ is 7.11 µM; against DGKα, over 10 µM.
The like results for `CC[C@H]1CN(C(C)c2cnn(CC)c2C(F)(F)F)[C@H](CC)CN1c1cc(=O)n(C)c2cn(CC#N)nc12` (single isomer, unassigned) [Compound A119a] were, in that order, 0.015 µM and 8.09 µM.
The corresponding values for `CC[C@@H]1CN(c2cc(=O)n(C)c3cn(CC)nc23)[C@@H](C)CN1C(C)c1ccc2nccnc2c1` (single isomer, unassigned) [Compound A221a] are 0.216 µM and 1.09 µM.
The like results for `CC(c1ccc(F)cc1OC(F)F)N1C[C@H](C)N(c2cc(=O)n(C)c3cn(CC#N)nc23)C[C@H]1C` (stereo partly drawn) [Compound A247, 2-(7-((2S,5R)-4-(1-(2-(difluoromethoxy)-4-fluorophenyl)ethyl)-2,5-dimethylpiperazin-1-yl)-4-methyl-5-oxo-4,5-dihydro-2H-pyrazolo[4,3-b]pyridin-2-yl)acetonitrile] were, in that order, 0.283 µM and over 10 µM.
`CCC(c1ccc(F)cc1C(F)(F)F)N1C[C@H](CC)N(c2cc(=O)n(C)c3cn(CC#N)nc23)C[C@H]1CC` (some centres unmarked) [Compound A293]: the IC50 amounted to 0.237 µM at DGKζ and 9.95 µM against DGKα.

What is called IC50 is the concentration that gives 50% inhibition.

For the origin of these results see patent US20240270751A1, “Pyrazolopyridinone Compounds” (BeiGene Ltd., priority 2021, published 2024).
